Entries after “also recorded” stand apart in the source; their conditions may differ. *1 amine or outer side, *2 acyl side, *3 side chain or, on linkers, in order; H or OH if unused. Where a SMILES comes first, the peptide text is derived from it. Bridges are numbered along the chain shown (N, C = ends). Roman numbers before positions name the chains, in order. [ ]: non-standard residue; d: D form. The star is where a group is joined. Actinocin(9to1) = Cc1c2oc3c(C)ccc(C(=O)[*:1])c3nc-2c(C(=O)[*:2])c(N)c1=O; NMeV = CN[C@H](C(=O)O)C(C)C; Cbz = O=C(OCc1ccccc1)*; Sar = CNCC(=O)O; CH2F = FC*
Key:
MEFs [1] = experiment: Caspase-independent cytochrome c release (CICR) assay, diffuse cytochrome c immunostaining; assay type: cell-based, mouse; conditions: for Diffuse cyt c (%): Act-D 40 nM, QVD 40 μM
Method: Caspase-independent cytochrome c release (CICR) assay. 3×10^4 cells were plated in each well of a Lab-Tek 4 well chamber slide (Nalge Nunc International, Naperville, Ill.) and treated with Act-D (40 nM), DMSO (0.2%), QVD (40 μM), or QVD plus Act-D for 1, 2, or 3 days. QVD (and Act-D+QVD) was replaced each day. At the end of the experiment, cells were washed twice with PBS and fixed with 4% formaldahyde in PBS for 5 minutes at room temperature. The cells were then washed twice with PBS and then incubated in blocking buffer (3% BSA and 0.1% Triton-X in PBS) for 30 min at room temperature. Cells were incubated for 1 hour at room temperature with anti-cytochrome c (Pharmingen, San Jose, Calif.) diluted 1:800 and 15 μg/ml Hoechst 33342 in blocking buffer. Cells were washed 5 times with PBS, and incubated with anti-mouse secondary antibody for 1 hour at room temperature. The cells were washed 5 times with PBS and then mounted in Prolong (Molecular Probes, Eugene, Oreg.).
Cells were scored as apoptotic if cytochrome c appeared diffuse and met the following criteria: 1) presence of diffuse cytochrome c in both the cytoplasm and nucleus; 2) lack of reticulated or punctate staining in the cytoplasm. Typically images were acquired using a 20× objective, and 500-800 cells were scored. For the exact number of cells counted in FIGS. 3A, 4, and 5, see Table 1 below. Nuclei were counted using images of uniformly illuminated Hoechst staining imported into Image J (URL: <http://rsb.info.nih.gov/ij/>).

MEFs [2] = experiment: Cell detachment scoring of Act-D-treated cultures with caspase inhibitors; assay type: cell-based, mouse; conditions: Act-D 40 nM, 3 days
Method: MEFs were given Act-D (40 nM in DMSO) or DMSO and either no inhibitor, zVAD (100 μM) or QVD (40 μM). After 3 days, the cells were photographed at 10× magnification.
(§1) Subconfluent cultures were treated with the caspase inhibitors zVAD or QVD together with actinomycin D (Act-D; 40 nM), which is known to induce cell death […]. Initially, the cultures were simply scored for cell detachment, a late event in the apoptotic response of adherent cells.

HMECs = experiment: as above; assay type: cell-based, human; conditions: for detachment of cells in the presence of Act-D and caspase inhibitor: Act-D treated
Method: as §1

WI-38 fibroblasts = experiment: as above; assay type: cell-based, human; conditions: for attachment of Act-D treated cells with caspase inhibitor: WI-38 cells
Method: as §1

MEFs [3] = experiment: PI exclusion assay (flow cytometry); assay type: cell-based, mouse
Method: PI exclusion assay. 1×10^5 cells were treated with Act-D (40 nM in DMSO), DMSO (0.2%), QVD (40 μM), or QVD plus Act-D for 1, 2, or 3 days. QVD (and Act-D+QVD) was replaced each day. At the end of the experiment, PI was added to a final concentration of 10 μg/ml. Following 10 min in the incubator, media were collected and the cells were washed with PBS. The PBS was also collected and combined with the media. The remaining cells were trypsinized and then combined with the mix of PBS and media. The cells were centrifuged at 200 g for 10 minutes and resuspended in 300 μl of PBS. The cells were then quantified and analyzed as above (Cotter and Martin, 1996).

MEFs [4] = experiment: Sub-G1 peak determination (flow cytometry); assay type: cell-based, mouse
Method: Cell Death Assays: Sub-G1 peak determination. 1×10^5 cells were treated with Act-D (40 nM in DMSO), DMSO (0.2%), QVD (40 μM), or QVD plus Act-D for 1, 2, or 3 days. QVD (and Act-D+QVD) was replaced each day. At the end of the experiment, media were collected and washed once with PBS. The PBS was also collected and then the cells were trypisized. Trypsinization was stopped by addition of the previously collected and pooled media and PBS. Cells were then collected by centrifugation at 200 g for 10 minutes, resuspended in 70% ethanol and stored at −20° C. overnight. The fixed cells were resuspended in 300 μl of PBS containing 10 μg/ml PI and 0.5 μg/ml RNase A and incubated at room temperature for 1 hour. Cells were quantified by flow cytometery using a FACscan (Becton Dickinson) in FL-3 and analyzed using Cellquest software (BD) (Cotter and Martin, 1996).

MEFs [5] = experiment: Mitochondrial membrane potential (TMRE, flow cytometry); assay type: cell-based, mouse
Method: Mitochondrial Membrane Potential. 1×10^5 cells were treated with Act-D and QVD for 1, 2, or 3 days. QVD (and Act-D+QVD) was replaced each day. At the end of the experiment, media were collected and the cells were washed with PBS. The PBS was collected and combined with the media. Cells were trypsinized and resuspended in medium and PBS, as described above. The cells were spun for 5 min at 200 g and resuspended in fresh media containing TMRE (50 nM) and allowed to incubate at 37° C. for 30 minutes. Fluorescence was quantified in FL-2 using a FACscan and analyzed with Cellquest software (Waterhouse et al., 2001).

HeLa cells = experiment: Cytochrome c immunocytochemistry of HeLa cells treated with ActD and ZVAD-fmk; assay type: cell-based; conditions: 24 h after treatment
Method: FIGS. 6A and 61B are photographs of the cells after the apoptosis assay. FIG. 6A. Immunocytochemistry. HeLa cells were treated with vehicle (DMSO Control), actinomycin D (ActD) to induce apoptosis, or ActD plus the caspase inhibitor ZVAD-fmk. 24 h later, cells were immunostained for cytochrome c (green) and counterstained with DAPI (blue) to identify nuclei. In control cells, cytochrome c is evident as punctate mitochondrial staining. […] FIG. 6B. Quantification. The % cells with diffuse cytochrome c staining (x axis) were scored 24 h after treatment with vehicle (Contr), ActD or ActD plus ZVAD (ZV). Cytochrome c staining in the presence of ZVAD allows apoptotic cells to accumulate over 24 h.

HCA-2 fibroblasts = experiment: Growth curves in media with QVD; assay type: cell-based; conditions: 0.1% DMSO + 40 μM QVD
Method: (§2) HCA-2 fibroblasts and HMEC were grown in normal growth media (DMEM, MEGM) or normal growth media supplemented with 0.1% DMSO (DMSO) or 0.1% DMSO+40 μM QVD (QVD). HCA-2 growth curves were averaged triplicates (HCA-2) or duplicates (HMEC) and error bars (HCA-2) are SD.

HMEC = experiment: Growth curves in media with QVD; assay type: cell-based, human; conditions: 0.1% DMSO + 40 μM QVD
Method: as §2

[6] = cited from earlier work
[7] = MEFs treated with Act-D for one day

## Cc1c2oc3c(C)ccc(C(=O)N[C@@H]4C(=O)N[C@H](C(C)C)C(=O)N5CCC[C@H]5C(=O)N(C)CC(=O)N(C)[C@@H](C(C)C)C(=O)O[C@@H]4C)c3nc-2c(C(=O)N[C@@H]2C(=O)N[C@H](C(C)C)C(=O)N3CCC[C@H]3C(=O)N(C)CC(=O)N(C)[C@@H](C(C)C)C(=O)O[C@@H]2C)c(N)c1=O [Act-D, actinomycin D] (I: T[dV]P[Sar][NMeV] / II: T[dV]P[Sar][NMeV]; ester I:1-I:C, II:1-II:C; linker I:N-II:N via Actinocin(9to1))
MEFs [1]; MEFs treated with Act-D for one day, CICR assay (QVD present)
  cells apoptotic by CICR assay: 13%
MEFs [1]; MEFs treated with Act-D, after 3 days, CICR assay (QVD present)
  cells dead or dying by CICR assay: 96%
MEFs [1]; MEFs, CICR assay
  time at which Act-D begins killing cells by CICR assay: ≤ 24 h
MEFs [1]; MEFs, Day 1
  Diffuse cyt c (%): 0.8%
MEFs [1]; MEFs, Day 2
  Diffuse cyt c (%): 13.4%
MEFs [2]
  apoptotic morphology and detachment: adopt characteristic apoptotic morphology and detach from the culture dish
HMECs; Act-D 40 nM, 3 days
  apoptotic morphology and detachment: adopt characteristic apoptotic morphology and detach from the culture dish
WI-38 fibroblasts; WI-38, Act-D 40 nM, 3 days
  apoptotic morphology and detachment: adopt characteristic apoptotic morphology and detach from the culture dish
MEFs [3]; MEFs treated with Act-D, after 3 days
  cells died by PI exclusion assay: 74%
MEFs [3]; MEFs, Act-D
  time after addition at which manifestations of apoptosis were apparent (propidium iodide exclusion): 1 to 2 days
MEFs [4]; [7]
  apoptosis detected by subG1 peak determination: little or no apoptosis
MEFs [4]; MEFs, Act-D
  time after addition at which manifestations of apoptosis were apparent (sub-G1 DNA peak): 1 to 2 days
MEFs [5]; [7]
  apoptosis detected by loss of ΔΨm: little or no apoptosis
MEFs [5]; MEFs, Act-D
  time after addition at which manifestations of apoptosis were apparent (reduction in ΔΨm): 1 to 2 days
HeLa cells
  cells remaining on dish and cytochrome c staining: fewer cells are present on the culture dish

## CC(C)[C@H](NC(=O)c1ccc2ccccc2n1)C(=O)N[C@@H](CC(=O)O)C(=O)COc1c(F)cccc1F [QVD, Quinoline-Val-Asp-Ch2-O-Ph]
MEFs [1]; MEFs, Day 1
  Diffuse cyt c (%): 2.0%
MEFs [1]; MEFs, Day 2
  Diffuse cyt c (%): 2.3%
MEFs [1]; MEFs, Day 3
  Diffuse cyt c (%): 3.2%
MEFs [2]; QVD 40 μM
  prevention of Act-D-induced cell detachment: preserves adhesion; also recorded: prevented most of the cell detachment
HMECs
  detachment of cells in the presence of Act-D and caspase inhibitor: a small fraction detached
WI-38 fibroblasts
  attachment of Act-D treated cells with caspase inhibitor: remained equally well attached
MEFs [3]; MEFs, Act-D, 40 μM QVD
  effect on Act-D-induced loss of propidium iodide exclusion: substantially or completely reduced
MEFs [4]; MEFs, Act-D, 40 μM QVD
  effect on Act-D-induced sub-G1 DNA peak: substantially or completely reduced
MEFs [5]; MEFs, Act-D, 40 μM QVD
  effect on Act-D-induced reduction in ΔΨm: substantially or completely reduced
HCA-2 fibroblasts
  effect on cell growth: does not inhibit growth
HMEC
  effect on cell growth: does not inhibit growth
[6]; animal, data sheet of distributor MP Biomedicals
  dose with no toxicity / administered safely: 1 g/kg of body weight
[6]; in vivo, Yang et al. 2004
  dose reported as safely used: 20 mg/kg of body weight

## COC(=O)C[C@H](NC(=O)[C@H](C)NC(=O)[C@@H](NC(=O)OCc1ccccc1)C(C)C)C(=O)CF [zVAD, benzyloxycarbonyl-Val-Ala-Asp-fluoromethylketone] (Cbz-Val-Ala-Asp(OMe)-CH2F)
MEFs [2]; zVAD 100 μM
  prevention of Act-D-induced cell detachment: failed to prevent detachment
HMECs
  detachment of cells in the presence of Act-D and caspase inhibitor: a larger fraction detached
WI-38 fibroblasts
  attachment of Act-D treated cells with caspase inhibitor: remained equally well attached

From patent US20060263809A1, “Method for sensitive measure of low level apoptosis in cells” (The Rgents of The University of California, priority 2005, published 2006)
